Measurements as given in PubChem BioAssay AID328 (DTP/NCI, 2004).
“And” between values parts separate entries of the source, which are not always exact repeats. Equal values may be shown once. Inconclusive results and toxic doses are left out. The calls were made as follows: active = survival T/C of 150% or more; inactive = T/C below 125% in these data.

Tested on: BDF1 mice, P388 leukemia ip, median survival T/C
Assay: NCI In Vivo Anticancer Drug Screen. Data for tumor model P388 Leukemia (intraperitoneal) in B6D2F1 (BDF1) mice
Conditions: endpoint: median survival time, higher = longer survival
Procedure, shortened: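 Each value expresses how treatment altered survival: treated-mouse outcome over vehicle-mouse outcome, both groups bearing the transplanted tumour.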

[1] = dose: 25.0 mg/kg/injection, schedule: Q01DX009 (ip), vehicle: saline with Tween-80
[2] = dose: 100.0 mg/kg/injection, schedule: Q01DX009 (ip), vehicle: saline with Tween-80
[3] = dose: 200.0 mg/kg/injection, schedule: Q01DX009 (ip), vehicle: saline with Tween-80
[4] = dose: 50.0 mg/kg/injection, schedule: Q01DX009 (ip), vehicle: saline with Tween-80
[5] = dose: 2.5 mg/kg/injection, schedule: Q01DX009 (ip), vehicle: saline

Measured: T/C

CC1=CC(C(O)CC(C)C)C(C)(Cc2ccc(C)cn2)NC1c1ccccc1 (stereo unspecified)
inactive: dose: 6.25 mg/kg/injection, schedule: Q01DX009 (ip), vehicle: saline with Tween-80 107 % of control | dose: 12.5 mg/kg/injection, schedule: Q01DX009 (ip), vehicle: saline with Tween-80 102 % of control | [1] 103 % of control

OC(Cc1cc(CC(O)(C(F)(F)F)C(F)(F)F)ncn1)(C(F)(F)F)C(F)(F)F
inactive: [2] 95 % of control | [3] 90 % of control

O=C1NC(=O)C(CSCc2ccccc2)(CSCc2ccccc2)N1
inactive: dose: 3.12 mg/kg/injection, schedule: Q04DX003 (ip), vehicle: saline with Tween-80 101 % of control | dose: 6.25 mg/kg/injection, schedule: Q04DX003 (ip), vehicle: saline with Tween-80 102 % of control | dose: 12.5 mg/kg/injection, schedule: Q04DX003 (ip), vehicle: saline with Tween-80 99 % of control | [1] 99 % of control | dose: 25.0 mg/kg/injection, schedule: Q04DX003 (ip), vehicle: saline with Tween-80 98 % of control | [4] 107 % of control | [2] 92 % of control | dose: 400.0 mg/kg/injection, schedule: Q01DX009 (ip), vehicle: saline with Tween-80 86 % of control

N#CC(Br)C(N)=O (stereo unspecified)
inactive: [5] 98 % of control | dose: 5.0 mg/kg/injection, schedule: Q01DX009 (ip), vehicle: saline 120 % of control

CCCCOC(=O)c1[nH]cnc1/N=N\N(C)C
inactive: dose: 12.5 mg/kg/injection, schedule: Q01DX009 (ip), vehicle: Klucel (hydroxypropylcellulose) (HPC) 104 % of control | dose: 25.0 mg/kg/injection, schedule: Q01DX009 (ip), vehicle: Klucel (hydroxypropylcellulose) (HPC) 109 % of control | dose: 50.0 mg/kg/injection, schedule: Q01DX009 (ip), vehicle: Klucel (hydroxypropylcellulose) (HPC) 104 % of control | dose: 100.0 mg/kg/injection, schedule: Q01DX009 (ip), vehicle: Klucel (hydroxypropylcellulose) (HPC) 100 % of control | dose: 132.0 mg/kg/injection, schedule: Q04DX003 (ip), vehicle: Klucel (hydroxypropylcellulose) (HPC) 100 % of control and 113 % of control | dose: 200.0 mg/kg/injection, schedule: Q04DX003 (ip), vehicle: Klucel (hydroxypropylcellulose) (HPC) 95 % of control and 113 % of control | dose: 300.0 mg/kg/injection, schedule: Q04DX003 (ip), vehicle: Klucel (hydroxypropylcellulose) (HPC) 109 % of control and 118 % of control

CCC([NH-])=O.CCC([NH-])=O.[Pt+2]
inactive: dose: 100.0 mg/kg/injection, schedule: Q04DX003 (ip), vehicle: water 101 % of control | dose: 200.0 mg/kg/injection, schedule: Q04DX003 (ip), vehicle: water 101 % of control | dose: 400.0 mg/kg/injection, schedule: Q04DX003 (ip), vehicle: water 101 % of control

NC(=O)c1nc(-c2ccccc2)c(-c2ccccc2)[nH]c1=O
inactive: [4] 109 % of control | [2] 117 % of control | dose: 100.0 mg/kg/injection, schedule: Q04DX003 (ip), vehicle: saline with Tween-80 106 % of control | [3] 99 % of control | dose: 200.0 mg/kg/injection, schedule: Q04DX003 (ip), vehicle: saline with Tween-80 102 % of control | dose: 400.0 mg/kg/injection, schedule: Q04DX003 (ip), vehicle: saline with Tween-80 116 % of control

CC1(O)CC(=O)c2c(ccc3c2C(=O)c2cccc(O)c2C3=O)C1 (stereo unspecified)
inactive: dose: 0.5 mg/kg/injection, schedule: Q01DX009 (ip), vehicle: Klucel (hydroxypropylcellulose) (HPC) 101 % of control | dose: 1.0 mg/kg/injection, schedule: Q01DX009 (ip), vehicle: Klucel (hydroxypropylcellulose) (HPC) 101 % of control | dose: 2.0 mg/kg/injection, schedule: Q01DX009 (ip), vehicle: Klucel (hydroxypropylcellulose) (HPC) 109 % of control | dose: 4.0 mg/kg/injection, schedule: Q01DX009 (ip), vehicle: Klucel (hydroxypropylcellulose) (HPC) 111 % of control

CCCCCC(O)C1C(=O)OC(C)C(O)/C=C/C=C/C=C/C=C\C=C(\C)C(O)CC(O)CC(O)CC(O)CC(O)CC(O)CC1O (stereo unspecified)
inactive: [5] 111 % of control | dose: 5.0 mg/kg/injection, schedule: Q01DX009 (ip), vehicle: Klucel (hydroxypropylcellulose) (HPC) 95 % of control | dose: 10.0 mg/kg/injection, schedule: Q01DX009 (ip), vehicle: Klucel (hydroxypropylcellulose) (HPC) 105 % of control | dose: 20.0 mg/kg/injection, schedule: Q01DX009 (ip), vehicle: Klucel (hydroxypropylcellulose) (HPC) 90 % of control

CC(=O)Oc1cc2c[n+](C)c3c4cc(OC(C)=O)c(OC(C)=O)cc4ccc3c2cc1OC(C)=O
inactive: dose: 20.0 mg/kg/injection, schedule: Q01DX009 (ip), vehicle: saline 95 % of control | dose: 40.0 mg/kg/injection, schedule: Q01DX009 (ip), vehicle: saline 104 % of control | dose: 80.0 mg/kg/injection, schedule: Q01DX009 (ip), vehicle: saline 109 % of control | dose: 120.0 mg/kg/injection, schedule: Q01DX009 (ip), vehicle: saline 118 % of control

Cn1nc([N+](=O)[O-])sc1=N
inactive: dose: 50.0 mg/kg/injection, schedule: Q01DX001 (ip), vehicle: saline sonified 105 % of control | dose: 100.0 mg/kg/injection, schedule: Q01DX001 (ip), vehicle: saline sonified 105 % of control | dose: 200.0 mg/kg/injection, schedule: Q01DX001 (ip), vehicle: saline sonified 110 % of control
